Results published in patent publication US9416115B2, “Fused heterocyclic compounds as ion channel modulators” (Gilead Sciences, Inc., priority 2013, dated 2016).
Read-outs that look alike come from different tables or passages of the source.

Assays:
[1] = target: T1, wild-type human cardiac sodium channel, hNav1.5 (Homo sapiens, UniProt Q14524); test: Late INa screening assay (QPatch whole cell patch clamp, Tefluthrin-induced late current); assay type: cell-based; settings: HEK293 hNav1.5, percent block of late INa
Summary of the method: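 HEK293 cells stably expressing hNav1.5 without beta subunits were whole-cell patch clamped at 23-25 °C, stepping from −120 to −20 mV for 250 ms at 0.1 Hz. Late current (240–265 ms) was induced with 10 μM Tefluthrin, and compounds were added typically at 0.3 or 1 μM. Percent block was taken against 0 Na baseline with rundown correction.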

[2] = target: T1, wild-type human cardiac sodium channel, hNav1.5; test: Peak INa screening assay (tonic block and use-dependent block); assay type: cell-based
Method: The cardiac late sodium current (Late INa) and peak sodium current (Peak INa) assays are performed on an automated electrophysiology platform, QPatch 16X or QPatch HT (Sophion Bioscience, Copenhagen, Denmark) using the whole cell patch clamp technique to measure currents through the cell membrane. The assay uses an HEK293 (human embryonic kidney) cell line heterologously expressing the wild-type human cardiac sodium channel, hNav1.5, purchased from Millipore (Billerica, Mass.). No beta subunits were coexpressed with the Na channel alpha subunit. Cells are maintained with standard tissue culture procedures and stable channel expression is maintained with 400 μg/mL Geneticin in the culture medium. Experiments are carried out at 23-25° C.
For both the Late INa and Peak INa assays, series resistance compensation is set to 100% and series resistance and whole-cell compensation are performed automatically. Currents are digitized at 25 kHz and low-pass filtered at 5 kHz and stored in the Sophion Bioscience Oracle database (Sophion Bioscience, Copenhagen, Denmark). Analysis is performed using QPatch Assay software and data are compiled in Excel 2010 (Microsoft, Seattle, Wash., U.S.A.).
Compound stocks are routinely made by the Gilead Sample Bank in vials to 10 mM in dimethyl sulfoxide (DMSO). In some cases, when compounds are not soluble in DMSO, they are made in 100% ethanol. Stocks are sonicated as necessary. The extracellular solution for screening Late INa is composed of: 140 mM NaCl, 4 mM KCl, 1.8 mM CaCl2, 1 mM MgCl2, 10 mM HEPES and 10 mM Dextrose with pH adjusted to 7.35 using NaOH. The intracellular solution contains: 105 mM CsF, 20 mM CsCl, 10NaF, 2 mM EGTA, 10 mM HEPES and 10 mM Dextrose with pH adjusted to 7.35 with CsOH. Compounds are diluted in extracellular solution using a MicroLab Nimbus (Hamilton Robotics, Reno, Nev.) to between 0.3 and 3 μM in glass vials and transferred to glass well plates before robotic addition to the cells. The 0 mM Na extracellular solution (0Na-ECF) used at the end of each experiment for the Late INa and Peak INa assays to measure baseline current contains: 140 Choline-Cl; 4 mM KCl, 1.8 mM CaCl2; 1 mM MgCl2; 10 mM HEPES and 10 mM Dextrose with pH was adjusted to 7.35 with CsOH.
Compounds were evaluated for their effect Nav1.5 Peak INa. It is contemplated that the compounds of Formula I avoid significant block of peak INa. Since the peak INa in the cells used herein can be very large, introducing artifacts in the recording, the concentration of Na^+ in the bath can be reduced to 40 mM by isosmotic replacement of Na^+ with Choline (see below).
Tonic Block (TB) of Peak INa was measured using a voltage step to −20 mV from a holding potential of −100 mV at a low stimulation frequency of 0.1 Hz. Use-Dependent Block (UDB) of Peak INa was measured during pulse number 50 of a pulse train (−20 mV, 20 ms, 50 pulses, 3 Hz) from a holding potential of −100 mV.
The extracellular solution for screening Peak INa is composed of: 40 mM NaCl, 100 mM Choline-Cl, 4 mM KCl, 1.8 mM CaCl2, 1 mM MgCl2 10 mM HEPES and 10 mM Dextrose with pH adjusted to 7.35 using NaOH. The intracellular solution used for the Peak INa assay is the same as outlined for the Late INa assay (see above).
After establishing the whole cell recording configuration, channels were stimulated to open with low frequency (0.1 Hz) so that the recording can be monitored and the extent to which the recording has stabilized can be assessed.
The test compound is then applied at 1 or 3 μM and was added 2 times at 60 second intervals. After the second compound addition, a 200 second wait period was imposed to allow for equilibration. Voltage protocols for TB and UDB are were performed in the absence and presence of compound and TB and UDB are calculated with respect to the compound free condition. Both TB and UDB were analyzed by incorporating rundown correction for the peak INa.

[3] = tonic block of Peak INa, 0.1 Hz, holding -100 mV, read-out: Peak TB 3 uM
[4] = use-dependent block of Peak INa, 3 Hz, pulse 50, read-out: Peak UDB 3 Hz 3 uM

T1 sequence (Q14524 whole entry): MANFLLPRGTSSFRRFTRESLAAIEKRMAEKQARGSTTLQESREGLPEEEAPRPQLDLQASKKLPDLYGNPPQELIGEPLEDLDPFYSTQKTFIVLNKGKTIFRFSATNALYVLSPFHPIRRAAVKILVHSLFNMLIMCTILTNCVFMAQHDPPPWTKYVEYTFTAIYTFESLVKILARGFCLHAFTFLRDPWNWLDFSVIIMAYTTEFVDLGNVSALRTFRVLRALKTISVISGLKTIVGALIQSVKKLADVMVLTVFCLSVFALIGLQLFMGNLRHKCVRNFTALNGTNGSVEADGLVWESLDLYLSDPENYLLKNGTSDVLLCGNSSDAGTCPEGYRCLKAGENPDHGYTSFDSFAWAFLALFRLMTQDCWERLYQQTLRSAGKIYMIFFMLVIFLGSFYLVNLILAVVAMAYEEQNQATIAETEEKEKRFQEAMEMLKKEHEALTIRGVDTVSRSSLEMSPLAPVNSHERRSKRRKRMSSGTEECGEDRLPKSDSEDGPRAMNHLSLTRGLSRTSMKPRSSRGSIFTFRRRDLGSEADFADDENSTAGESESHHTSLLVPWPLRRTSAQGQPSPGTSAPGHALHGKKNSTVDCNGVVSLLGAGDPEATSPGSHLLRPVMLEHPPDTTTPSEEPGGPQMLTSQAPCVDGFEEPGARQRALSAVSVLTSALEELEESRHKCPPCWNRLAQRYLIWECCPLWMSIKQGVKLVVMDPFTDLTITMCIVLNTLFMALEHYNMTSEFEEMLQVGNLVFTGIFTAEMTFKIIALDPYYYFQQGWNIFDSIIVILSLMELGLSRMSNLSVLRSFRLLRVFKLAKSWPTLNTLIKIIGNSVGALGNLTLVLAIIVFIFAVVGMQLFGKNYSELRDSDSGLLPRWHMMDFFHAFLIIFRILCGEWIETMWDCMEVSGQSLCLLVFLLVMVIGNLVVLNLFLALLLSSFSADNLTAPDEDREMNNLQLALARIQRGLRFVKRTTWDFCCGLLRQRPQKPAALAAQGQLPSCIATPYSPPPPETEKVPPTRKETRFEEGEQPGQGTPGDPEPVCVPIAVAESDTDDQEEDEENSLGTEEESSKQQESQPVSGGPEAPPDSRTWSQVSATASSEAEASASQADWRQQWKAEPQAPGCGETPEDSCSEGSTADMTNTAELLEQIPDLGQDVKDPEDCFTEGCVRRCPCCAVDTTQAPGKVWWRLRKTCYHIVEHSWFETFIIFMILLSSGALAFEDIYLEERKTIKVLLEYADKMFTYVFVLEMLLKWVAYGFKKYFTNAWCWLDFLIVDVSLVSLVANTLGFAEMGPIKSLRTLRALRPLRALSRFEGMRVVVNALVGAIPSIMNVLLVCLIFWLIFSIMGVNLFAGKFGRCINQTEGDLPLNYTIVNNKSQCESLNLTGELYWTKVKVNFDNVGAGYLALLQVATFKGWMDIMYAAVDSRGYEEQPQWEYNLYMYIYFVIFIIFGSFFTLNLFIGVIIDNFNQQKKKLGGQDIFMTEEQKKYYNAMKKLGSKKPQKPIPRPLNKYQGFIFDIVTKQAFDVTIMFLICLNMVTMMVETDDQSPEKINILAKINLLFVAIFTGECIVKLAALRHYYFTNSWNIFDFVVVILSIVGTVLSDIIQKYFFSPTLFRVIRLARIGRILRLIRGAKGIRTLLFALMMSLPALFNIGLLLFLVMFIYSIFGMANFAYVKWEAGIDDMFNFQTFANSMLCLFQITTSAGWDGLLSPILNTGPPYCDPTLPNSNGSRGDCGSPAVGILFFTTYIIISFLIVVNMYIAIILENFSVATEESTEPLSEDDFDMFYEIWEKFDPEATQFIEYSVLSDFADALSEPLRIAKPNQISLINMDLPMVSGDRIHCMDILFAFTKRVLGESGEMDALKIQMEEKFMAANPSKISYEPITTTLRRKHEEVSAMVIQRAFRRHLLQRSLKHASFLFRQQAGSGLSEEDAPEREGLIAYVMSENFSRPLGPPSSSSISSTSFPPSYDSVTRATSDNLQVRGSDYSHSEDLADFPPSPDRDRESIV

Compound	inhibition at 0.3 µM [1]	inhibition at 1 µM [1]	inhibition at 3 µM [2, 3]	inhibition at 3 µM [2, 4]
FC(F)(F)Oc1ccc(-c2ccc3onc(OC[C@H]4COCCN4)c3c2)cc1 [Example 114, (R)-3-(morpholin-3-ylmethoxy)-5-(4-(trifluoromethoxy)phenyl)benzo[d]isoxazole]	22.5%	61.2%	43.4%	33.3%
Cc1nnc(C(C)Oc2noc3ccc(-c4ccc(OC(F)(F)F)cc4)cc23)o1 (stereo not drawn) [Example 153, 3-(1-(5-methyl-1,3,4-oxadiazol-2-yl)ethoxy)-5-(4-(trifluoromethoxy)phenyl)benzo[d]isoxazole]	51.3%	67.6%	57.6%	–
CC(COc1noc2ccc(-c3ccc(OC(F)(F)F)cc3)cc12)n1cccn1 (stereo not drawn) [Example 68, 3-(2-(1H-pyrazol-1-yl)propoxy)-5-(4-(trifluoromethoxy)phenyl)benzo[d]isoxazole]	35.8%	62.2%	10.5%	< 5%
N#CCOc1noc2ccc(-c3ccc(OC(F)(F)F)cc3)cc12 [Example 103, 2-((5-(4-(trifluoromethoxy)phenyl)benzo[d]isoxazol-3-yl)oxy)acetonitrile]	–	38.9%	18.8%	< 5%
COc1cc2onc(OCc3ncccn3)c2cc1-c1ccc(OC(F)(F)F)c(C)c1 [Example 14, 6-methoxy-5-(3-methyl-4-(trifluoromethoxy)phenyl)-3-(pyrimidin-2-ylmethoxy)benzo[d]isoxazole]	–	46.7%	23.8%	6.4%
Cc1cn(-c2noc3ccc(-c4ccc(OC(F)(F)F)cc4)cc23)cn1 [Example 139, 3-(4-methyl-1H-imidazol-1-yl)-5-(4-(trifluoromethoxy)phenyl)benzo[d]isoxazole]	–	41.2%	15.6%	< 5%
COc1cc2onc(OCc3ncccn3)c2cc1-c1ccc(F)c(Cl)c1 [Example 15, 5-(3-chloro-4-fluorophenyl)-6-methoxy-3-(pyrimidin-2-ylmethoxy)benzo[d]isoxazole]	–	32.2%	14.3%	< 5%
O=C1NCC[C@H]1Oc1noc2ccc(-c3ccc(OC(F)(F)F)cc3)cc12 [Example 72, (R)-3-((5-(4-(trifluoromethoxy)phenyl)benzo[d]isoxazol-3-yl)oxy)pyrrolidin-2-one]	14%	57.4%	17.7%	10.8%
CC(C)[C@H](N)COc1noc2ccc(-c3ccc(OC(F)(F)F)cc3)cc12 [Example 118, (S)-3-methyl-1-((5-(4-(trifluoromethoxy)phenyl)benzo[d]isoxazol-3-yl)oxy)butan-2-amine]	22.5%	66.1%	88.8%	56.1%
COc1cc2onc(OCc3ncccn3)c2cc1-c1ccc(Cl)c(F)c1 [Example 13, 5-(4-chloro-3-fluorophenyl)-6-methoxy-3-(pyrimidin-2-ylmethoxy)benzo[d]isoxazole]	–	35.1%	10.7%	< 5%
FC(F)(F)Oc1ccc(-c2ccc3onc(N4CCOCC4)c3c2)cc1 [Example 130, 3-morpholino-5-(4-(trifluoromethoxy)phenyl)benzo[d]isoxazole]	–	38.3%	9.2%	< 5%
FC(F)(F)Oc1ccc(-c2ccc3onc(-n4cncn4)c3c2)cc1 [Example 136, 3-(1H-1,2,4-triazol-1-yl)-5-(4-(trifluoromethoxy)phenyl)benzo[d]isoxazole]	–	44.8%	10.5%	< 5%
CN1CCC[C@H]1COc1noc2ccc(-c3ccc(OC(F)(F)F)cc3)cc12 [Example 71, (S)-3-((1-methylpyrrolidin-2-yl)methoxy)-5-(4-(trifluoromethoxy)phenyl)benzo[d]isoxazole]	41.7%	81.5%	61.1%	44.4%
COc1cc(OC(F)(F)F)ccc1-c1ccc2onc(OCc3ncccn3)c2c1 [Example 4, 5-(2-methoxy-4-(trifluoromethoxy)phenyl)-3-(pyrimidin-2-ylmethoxy)benzo[d]isoxazole]	29.7%	62.9%	38%	17.9%
Cc1cc(-c2ccc(OC(F)(F)F)cc2)cc2c(OCc3cn(C)nn3)noc12 [Example 87, 7-methyl-3-((1-methyl-1H-1,2,3-triazol-4-yl)methoxy)-5-(4-(trifluoromethoxy)phenyl)benzo[d]isoxazole]	18.4%	62.7%	54.7%	39%
FC(F)(F)Oc1ccc(-c2ccc3onc(NCc4ncccn4)c3c2)cc1 [Example 126, N-(pyrimidin-2-ylmethyl)-5-(4-(trifluoromethoxy)phenyl)benzo[d]isoxazol-3-amine]	–	50%	17.3%	< 5%
OCc1cn(-c2noc3ccc(-c4ccc(OC(F)(F)F)cc4)cc23)cn1 [Example 146, (1-(5-(4-(trifluoromethoxy)phenyl)benzo[d]isoxazol-3-yl)-1H-imidazol-4-yl)methanol]	–	48.4%	28.8%	25.5%
FC(F)(F)Oc1ccc(-c2ccc3onc(OC[C@@H]4COCCN4)c3c2)cc1 [Example 113, (S)-3-(morpholin-3-ylmethoxy)-5-(4-(trifluoromethoxy)phenyl)benzo[d]isoxazole]	43.9%	79.9%	54.3%	37.3%
FC(F)(F)Oc1ccc(-c2ccc3onc(-n4cnc(-c5ccccc5)c4)c3c2)cc1 [Example 142, 3-(4-phenyl-1H-imidazol-1-yl)-5-(4-(trifluoromethoxy)phenyl)benzo[d]isoxazole]	–	44%	15.6%	13.9%
Cc1cc(-c2ccc(OC(F)(F)F)cc2)cc2c(OCc3ncccn3)noc12 [Example 16, 7-methyl-3-(pyrimidin-2-ylmethoxy)-5-(4-(trifluoromethoxy)phenyl)benzo[d]isoxazole]	–	54.2%	35.8%	< 5%
CN(C)c1noc2ccc(-c3ccc(OC(F)(F)F)cc3)cc12 [Example 133, N,N-dimethyl-5-(4-(trifluoromethoxy)phenyl)benzo[d]isoxazol-3-amine]	–	45.8%	38.8%	5.2%
CCn1ccnc1COc1noc2ccc(-c3ccc(OC(F)(F)F)cc3)cc12 [Example 47, 3-((1-ethyl-1H-imidazol-2-yl)methoxy)-5-(4-(trifluoromethoxy)phenyl)benzo[d]isoxazole]	20%	60.2%	21.7%	8.5%
